Test results: ChEMBL document CHEMBL1201862, “PubChem BioAssay data set” (2004)
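Briefly, cells in 96-well plates were exposed to five compound concentrations for 48 h, and endpoints were estimated by linear interpolation. GI50 marks 50% less growth.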 Activity calls are given as the source filed them. Cut-off read from the data, not from the text of the source: active = GI50 up to about 1.1 µM and inactive = higher. Starred links: 1 amine or outer side, 2 acyl side, 3 side chain; linkers in the order of their positions; H or OH if unused. Positions of bridges follow the written chain, without caps; N, C: chain ends. Non-standard residues stand in square brackets, D forms with d. Residues, ends and D or L forms follow the SMILES beside them. ξ: configuration not given here. X37 = CC[C@H](C)[C@@H](N[*:1])[C@@H](O)CC(=O)O[C@H](C(=O)[C@H](C)C(=O)[*:2])C(C)C; NMeY = CN[C@@H](Cc1ccc(O)cc1)C(=O)O; dNMeL = CN[C@H](CC(C)C)C(=O)O; ξΔPro = O=C(O)C1C=CCN1

How the values were obtained:
Test in all cases: NCI tumour cell line growth inhibition, 48 h
DU-145 = test system: DU-145
EKVX = test system: EKVX
HCC 2998 = test system: HCC 2998
HCT-15 = test system: HCT-15
HL-60 = test system: HL-60
HOP-62 = test system: HOP-62
K562 = test system: K562
MDA-MB-435 = test system: MDA-MB-435
MDA-N = test system: MDA-N
Malme-3M = test system: Malme-3M
NCI-H226 = test system: NCI-H226
NCI-H23 = test system: NCI-H23
RXF 393 = test system: RXF 393
SF-268 = test system: SF-268
SF-295 = test system: SF-295
SF-539 = test system: SF-539
SNB-19 = test system: SNB-19
SW-620 = test system: SW-620
TK-10 = test system: TK-10
UACC-62 = test system: UACC-62

Structure (SMILES)	GI50 (DU-145)	GI50 (EKVX)	GI50 (HCC 2998)	GI50 (HCT-15)	GI50 (HL-60)	GI50 (HOP-62)	GI50 (K562)	GI50 (MDA-MB-435)	GI50 (MDA-N)	GI50 (Malme-3M)	GI50 (NCI-H226)	GI50 (NCI-H23)	GI50 (RXF 393)	GI50 (SF-268)	GI50 (SF-295)	GI50 (SF-539)	GI50 (SNB-19)	GI50 (SW-620)	GI50 (TK-10)	GI50 (UACC-62)
Cc1c(CCOC=O)c(=O)[nH]c2nncn12	> 100 µM (inactive)	> 100 µM (inactive)	> 100 µM (inactive)	> 100 µM	> 100 µM (inactive)	> 100 µM (inactive)	> 100 µM (inactive)	> 100 µM (inactive)	> 100 µM (inactive)	> 100 µM (inactive)	> 100 µM (inactive)	> 100 µM (inactive)	> 100 µM (inactive)	> 100 µM (inactive)	> 100 µM (inactive)	> 100 µM (inactive)	> 100 µM (inactive)	> 100 µM (inactive)	> 100 µM (inactive)	> 100 µM (inactive)
CCCCC(=O)NC1(c2cc3ccccc3s2)CCCCC1	> 100 µM (inactive)	> 100 µM (inactive)	> 100 µM (inactive)	> 100 µM	4.89 µM (inactive)	> 100 µM (inactive)	> 100 µM (inactive)	> 100 µM (inactive)	> 100 µM (inactive)	> 100 µM (inactive)	> 100 µM (inactive)	> 100 µM (inactive)	> 100 µM (inactive)	> 100 µM (inactive)	> 100 µM (inactive)	33.2 µM (inactive)	> 100 µM (inactive)	> 100 µM (inactive)	> 100 µM (inactive)	62.1 µM (inactive)
CCCC(=O)Nc1cc(/C=C/C(=O)N2CC(CCl)c3c2cc([N+](=O)[O-])c2ccccc32)n(C)c1 (stereo not given)	0.632 µM (active)		14.5 µM (inactive)	> 4.65 µM	0.767 µM (active)	> 35.1 µM (inactive)	0.738 µM (active)	> 100 µM (inactive)	> 100 µM (inactive)		> 100 µM (inactive)	1 µM (active)	59.4 µM (inactive)	> 100 µM (inactive)	> 52.1 µM (inactive)	56.1 µM (inactive)	> 100 µM (inactive)	> 100 µM (inactive)	> 100 µM (inactive)	8.38 µM (inactive)
CC(=O)OC1=NN=C2COC(c3ccccc3OC(C)=O)=NN2C1	> 50 µM (inactive)	> 50 µM (inactive)	> 50 µM (inactive)	> 50 µM	> 50 µM (inactive)	> 50 µM (inactive)	> 50 µM (inactive)	> 50 µM (inactive)	> 50 µM (inactive)	27.2 µM (inactive)		> 50 µM (inactive)	> 50 µM (inactive)	34.8 µM (inactive)	> 50 µM (inactive)	> 50 µM (inactive)	> 50 µM (inactive)	> 50 µM (inactive)	> 50 µM (inactive)	28.1 µM (inactive)
CCC1=NC(N/N=C/c2ccco2)=N/C1=C\c1ccco1	> 100 µM (inactive)	> 100 µM (inactive)	> 100 µM (inactive)	> 100 µM	> 100 µM (inactive)	> 100 µM (inactive)	62.1 µM (inactive)	52 µM (inactive)	> 100 µM (inactive)	> 100 µM (inactive)	> 100 µM (inactive)	> 100 µM (inactive)	> 100 µM (inactive)	> 100 µM (inactive)	> 100 µM (inactive)		> 100 µM (inactive)	> 100 µM (inactive)	> 100 µM (inactive)	> 100 µM (inactive)
NC(CSCc1ccccc1)C(=O)O (stereo not given)	> 100 µM (inactive)	> 100 µM (inactive)	> 100 µM (inactive)	> 100 µM	> 100 µM (inactive)	> 100 µM (inactive)	> 100 µM (inactive)	> 100 µM (inactive)	> 100 µM (inactive)	> 100 µM (inactive)	> 100 µM (inactive)	> 100 µM (inactive)	> 100 µM (inactive)	> 100 µM (inactive)	> 100 µM (inactive)		> 100 µM (inactive)	> 100 µM (inactive)	> 100 µM (inactive)	> 100 µM (inactive)
COc1cccc(C=C2N=C(c3ccccc3)N(n3c(-c4ccccc4)nc4ccccc4c3=O)C2=O)c1	83.8 µM (inactive)	43.6 µM (inactive)	64.6 µM (inactive)	54.3 µM	25.1 µM (inactive)	85.1 µM (inactive)	68.9 µM (inactive)	> 100 µM (inactive)	48.3 µM (inactive)	> 100 µM (inactive)	> 100 µM (inactive)	71.9 µM (inactive)		56.4 µM (inactive)	57.4 µM (inactive)	43.2 µM (inactive)	64.6 µM (inactive)	74.3 µM (inactive)	> 100 µM (inactive)	26.2 µM (inactive)
CC[C@H](C)[C@H]1NC(=O)[C@@H](NC(=O)[C@@H](CC(C)C)N(C)C(=O)C2C=CCN2)[C@@H](C)OC(=O)[C@H](Cc2ccc(OC)cc2)N(C)C(=O)[C@@H]2CCCN2C(=O)[C@H](CC(C)C)NC(=O)[C@@H](C)C(=O)[C@H](C(C)C)OC(=O)C[C@@H]1O (stereo not given in full) (H-[ξΔPro][dNMeL]T[X37]LP[NMeY](Me); ester 3-C)	< 0.005 µM (active)	< 0.005 µM (active)	< 0.005 µM (active)	0.0162 µM	0.00703 µM (active)	< 0.005 µM (active)	< 0.005 µM (active)	< 0.005 µM (active)	< 0.005 µM (active)	< 0.005 µM (active)	< 0.005 µM (active)	< 0.005 µM (active)	< 0.005 µM (active)	< 0.005 µM (active)	< 0.005 µM (active)		< 0.005 µM (active)	< 0.005 µM (active)	< 0.005 µM (active)	< 0.005 µM (active)
NC(=O)c1ncn(C2CCC(CP(=O)(O)O)C2)c1N (stereo not given)	> 100 µM (inactive)	> 100 µM (inactive)	> 100 µM (inactive)	> 100 µM		> 100 µM (inactive)		> 100 µM (inactive)	> 100 µM (inactive)	> 100 µM (inactive)	> 100 µM (inactive)	> 100 µM (inactive)	> 100 µM (inactive)	> 100 µM (inactive)	> 100 µM (inactive)	> 100 µM (inactive)	> 100 µM (inactive)	> 100 µM (inactive)	> 100 µM (inactive)	> 100 µM (inactive)
COc1ccc(-c2nc(SCC(=O)NNC(=S)Nc3ccccc3)[nH]c2-c2ccc(OC)cc2)cc1	28.7 µM (inactive)	28.8 µM (inactive)	14 µM (inactive)	22.2 µM	4.63 µM (inactive)	18.6 µM (inactive)	23.1 µM (inactive)	18.2 µM (inactive)	20.6 µM (inactive)	52.2 µM (inactive)		21.4 µM (inactive)	16.9 µM (inactive)	25.9 µM (inactive)	19.1 µM (inactive)	15.7 µM (inactive)	21.8 µM (inactive)	26.9 µM (inactive)	40.6 µM (inactive)	16.6 µM (inactive)
CC(=O)N(CN1C(=O)CCC1C(=O)O)c1ccc(C)cc1 (stereo not given)	> 100 µM (inactive)	> 100 µM (inactive)	> 100 µM (inactive)	> 100 µM	> 100 µM (inactive)	> 100 µM (inactive)	> 100 µM (inactive)	> 100 µM (inactive)	> 100 µM (inactive)	> 100 µM (inactive)	> 100 µM (inactive)	> 100 µM (inactive)		> 100 µM (inactive)	> 100 µM (inactive)	> 100 µM (inactive)	> 100 µM (inactive)	> 100 µM (inactive)	> 100 µM (inactive)	> 100 µM (inactive)
N=c1oc2ccc([N+](=O)[O-])cc2cc1C(=O)Nc1ccccn1	60.4 µM (inactive)	34.6 µM (inactive)	91.4 µM (inactive)	44.3 µM	49.4 µM (inactive)	25.3 µM (inactive)	> 100 µM (inactive)	37.6 µM (inactive)	49.2 µM (inactive)	21.7 µM (inactive)	71.9 µM (inactive)	41.3 µM (inactive)	31.2 µM (inactive)	34.8 µM (inactive)		26.2 µM (inactive)	33.9 µM (inactive)	70.3 µM (inactive)		34.2 µM (inactive)
O=[N+]([O-])C1(C2([N+](=O)[O-])CCCC2)CCCC1	> 100 µM (inactive)	> 100 µM (inactive)	> 100 µM (inactive)	> 100 µM	> 100 µM (inactive)		> 100 µM (inactive)	> 100 µM (inactive)	> 100 µM (inactive)	> 100 µM (inactive)	> 100 µM (inactive)	> 100 µM (inactive)	> 100 µM (inactive)	> 100 µM (inactive)		> 100 µM (inactive)	> 100 µM (inactive)	> 100 µM (inactive)	> 100 µM (inactive)	> 100 µM (inactive)
O=c1[nH]n(Cc2ccccc2Cl)c2ccccc12	> 100 µM (inactive)	> 100 µM (inactive)	> 100 µM (inactive)	> 100 µM	> 100 µM (inactive)	> 100 µM (inactive)	> 100 µM (inactive)	> 100 µM (inactive)	> 100 µM (inactive)	> 100 µM (inactive)	> 100 µM (inactive)	> 100 µM (inactive)	> 10 µM (inactive)	40.6 µM (inactive)		> 100 µM (inactive)	> 100 µM (inactive)	> 100 µM (inactive)	> 100 µM (inactive)	> 100 µM (inactive)
CC(C)c1ccccc1SC1CC(=O)CC(Sc2ccccc2C(C)C)C12O[C@H](c1ccccc1)[C@@H](c1ccccc1)O2 (stereo not given in full)	76.2 µM (inactive)	> 100 µM (inactive)	36 µM (inactive)	31.7 µM	12.3 µM (inactive)	> 100 µM (inactive)		22.6 µM (inactive)	20.9 µM (inactive)			36.8 µM (inactive)	19.9 µM (inactive)		> 100 µM (inactive)	57.1 µM (inactive)	> 100 µM (inactive)	39.2 µM (inactive)	85.9 µM (inactive)	28.4 µM (inactive)
